Non-standard residues stand in square brackets, D forms with d. Residues, ends and D or L forms follow the SMILES beside them. *: point of attachment. 2Nal = N[C@@H](Cc1ccc2ccccc2c1)C(=O)O; Nle = CCCC[C@H](N)C(=O)O; Octanoyl = CCCCCCCC(=O)*
What was measured:
[1] = biological target: T1, FPR2 (Homo sapiens, UniProt P25090); assay: FPR2 activation by intracellular calcium ion increase (Fura-2/AM) in FPR2-RBL cells; assay type: cell-based; details: RBL cells overexpressing FPR2
T1 construct: expressed in transfected cells; host or cells: RBL cells overexpressing FPR2 (FPR2-RBL)
T1 sequence (P25090 1-351): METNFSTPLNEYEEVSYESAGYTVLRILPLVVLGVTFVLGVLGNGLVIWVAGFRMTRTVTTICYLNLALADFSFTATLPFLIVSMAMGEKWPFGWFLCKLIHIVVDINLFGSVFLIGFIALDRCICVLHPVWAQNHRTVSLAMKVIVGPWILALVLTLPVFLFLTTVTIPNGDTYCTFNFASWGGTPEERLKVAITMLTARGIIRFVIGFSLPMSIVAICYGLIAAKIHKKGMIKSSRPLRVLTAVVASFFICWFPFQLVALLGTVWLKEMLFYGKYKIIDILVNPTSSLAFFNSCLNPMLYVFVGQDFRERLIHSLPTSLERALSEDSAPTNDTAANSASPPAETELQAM
Protocol: The present inventors observed a change in calcium ion permeability of the candidate peptides according to an embodiment of the present invention in order to determine whether they can activate the immunomodulatory function in a body or not. Particularly, intracellular concentration of calcium ions was measured to confirm that the peptide activates FPR2. RBL cells that do neither express FPR1 nor FPR2, RBL cells overexpressed FPR1 (FPR1-RBL) and RBL cells that overexpressed FPR2 (FPR2-RBL) were used and Fura-2/AM which is a fluorophore having high binding affinity to calcium in order to measure intracellular calcium ion level sensitively. For this purpose, cells were cultured in RPMI medium supplemented with 10% fetal bovine serum and harvested by centrifugation in log phase (mid-log phase, 1-3×10^7 cells/ml), and then washed several times with RPMI medium not supplemented with fetal bovine serum, and then the cells were resuspended in RPMI medium to 1×10^7 cells/ml. Subsequently, a final 3 μM concentration of Fura-2/AM was added and the cells were incubated for 45 minutes in a 37° C., 5% CO2 incubator. After the appropriated time, the cells are harvested, washed again with RPMI medium, and then suspended in the appropriate amount of RPMI medium supplemented with 250 μM of sulfinpyrazone, in order to prevent loss of Fura-2 entering the cells. About 2×10^6 cells were taken each time, harvested by rapid centrifugation, and resuspended in 1 ml of a Locke solution without addition of calcium ions and EGTA added, and the ratio of absorbance at two wavelengths of 340 nm and 380 nm on a spectrophotometer were monitored by treating the peptides according to an embodiment of the present invention at different concentrations (1 μM, 0.1 μM, and 0.01 μM) at intervals of about 1 minute, and then the difference in absorbance at two wavelengths was investigated. It was converted to the concentration of free calcium ions into cells according to the method of Grynkiewicz.

[2] = system: S. aureus; assay type: cell-based, Staphylococcus aureus; details: 18 h
Protocol: (§1) The present inventors evaluated […] in order to select peptides showing excellent performance among various peptides synthesized in the Example 1. Particularly, in order to measure the antimicrobial activity of the peptide, after preparing Gram-positive bacteria Staphylococcus aureus (S. aureus) and Gram-negative bacteria Pseudomonas aeruginosa (P. aeruginosa), the bacteria were plated on agar plate medium by fourth streaking and cultured overnight in a 36° C. incubator. The next day, the strain colonies produced on the agar plate medium were inoculated into 3 ml nutrient medium and cultured overnight in a stirring incubator at 36° C. and 220 rpm. The next day, the bacteria were diluted to measure absorbance at 600 nm, adjusted to OD600=0.5, and diluted in a 1:100 ratio in nutrient medium. Then, the peptides prepared in the above Examples were serially diluted in concentrations of 0, 1.25, 2.5, 5, 10, and 20 μM in a nutrient medium to prepare 1 ml each, and then inoculated with 1 ml of the diluted bacteria. Subsequently, the mixture was stirred under conditions of 36° C. and 220 rpm, and incubated for 18 hours, and absorbance at 600 nm was measured.
(§2) As a result, 20 peptides showing high antibacterial activity against P. aeruginosa and S. aureus) were selected (FIGS. 2 and 3).

[3] = system: P. aeruginosa; assay type: cell-based, Pseudomonas aeruginosa; details: 18 h
Protocol: as §1, §2

Row | SMILES | EC50 [1] | Antimicrobial activity (IC50, μg/ml) S. aureus [2] | Antimicrobial activity (IC50, μg/ml) P. aeruginosa [3]
1 | N=C(N)NCCC[C@H](NC(=O)[C@H](Cc1c[nH]c2ccccc12)NC(=O)[C@@H](N)CCCNC(=N)N)C(=O)N[C@@H](Cc1c[nH]c2ccccc12)C(=O)N[C@@H](Cc1ccc2ccccc2c1)C(=O)N[C@@H](Cc1c[nH]c2ccccc12)C(N)=O [Peptide V16_0, RWRWZW-NH2] (H-RWRW[2Nal]W-NH2) |  | 30.2 µg/mL | 4.3 µg/mL
2 | CSCC[C@@H](NC(=O)[C@H](Cc1c[nH]c2ccccc12)NC(=O)[C@H](Cc1ccc2ccccc2c1)NC(=O)[C@H](Cc1c[nH]c2ccccc12)NC(=O)[C@H](CCCNC(=N)N)NC(=O)[C@H](Cc1c[nH]c2ccccc12)NC(=O)[C@@H](N)CCCNC(=N)N)C(N)=O [Peptide V18_0, RWRWZWm-NH2] (H-RWRW[2Nal]W[dM]-NH2) | 10 nM | 6.8 µg/mL | 21.1 µg/mL
3 | CSCC[C@@H](NC(=O)[C@H](Cc1c[nH]c2ccccc12)NC(=O)[C@H](CCCNC(=N)N)NC(=O)[C@H](Cc1c[nH]c2ccccc12)NC(=O)[C@H](Cc1c[nH]c2ccccc12)NC(=O)[C@H](CCCNC(=N)N)NC(=O)[C@H](Cc1ccc2ccccc2c1)NC(C)=O)C(N)=O [Peptide V19_Ac, Ac-ZRWWRWm-NH2] (Ac-[2Nal]RWWRW[dM]-NH2) | 69.4 nM | 5.4 µg/mL | >50 µg/mL
4 | CCCC[C@H](NC(=O)[C@H](Cc1c[nH]c2ccccc12)NC(=O)[C@H](Cc1c[nH]c2ccccc12)NC(=O)[C@H](CCCNC(=N)N)NC(=O)[C@H](Cc1ccc2ccccc2c1)NC(C)=O)C(=O)N[C@@H](Cc1c[nH]c2ccccc12)C(=O)N[C@H](CCSC)C(N)=O [Peptide V20_Ac, Ac-ZRWW-Nle-Wm-NH2] (Ac-[2Nal]RWW[Nle]W[dM]-NH2) | 45.3 nM | >50 µg/mL | >50 µg/mL
5 | CSCC[C@@H](NC(=O)[C@@H](NC(=O)[C@H](CCCNC(=N)N)NC(=O)[C@H](Cc1c[nH]c2ccccc12)NC(=O)[C@H](Cc1c[nH]c2ccccc12)NC(=O)[C@H](CCCNC(=N)N)NC(=O)[C@H](Cc1ccc2ccccc2c1)NC(C)=O)C(C)C)C(N)=O [Peptide V21_Ac, Ac-ZRWWRVm-NH2] (Ac-[2Nal]RWWRV[dM]-NH2) | 92.3 nM | 9.4 µg/mL | >50 µg/mL
6 | CSCC[C@@H](NC(=O)[C@H](Cc1c[nH]c2ccccc12)NC(=O)[C@H](CCCNC(=N)N)NC(=O)[C@H](Cc1c[nH]c2ccccc12)NC(=O)[C@H](Cc1c[nH]c2ccccc12)NC(=O)[C@@H](NC(=O)[C@H](CCCNC(=N)N)NC(=O)[C@H](Cc1c[nH]c2ccccc12)NC(=O)[C@H](Cc1c[nH]c2ccccc12)NC(=O)[C@H](CCCNC(=N)N)NC(=O)[C@H](Cc1ccc2ccccc2c1)NC(C)=O)C(C)C)C(N)=O [Peptide V22_Ac, Ac-ZRWWRVWWRWm-NH2] (Ac-[2Nal]RWWRVWWRW[dM]-NH2) | 16.2 nM | 13.6 µg/mL | >50 µg/mL

Second part, the molecule after the results:

Row | EC50 [1] | Antimicrobial activity (IC50, μg/ml) S. aureus [2] | Antimicrobial activity (IC50, μg/ml) P. aeruginosa [3] | SMILES
7 | 107 nM | 15.2 µg/mL |  | CCCCCCCC(=O)N[C@@H](CCCCN)C(=O)N[C@@H](Cc1ccccc1)C(=O)N[C@@H](CCCCN)C(=O)N[C@@H](Cc1c[nH]c2ccccc12)C(=O)N[C@@H](CCCC)C(=O)N[C@@H](Cc1ccc(O)cc1)C(=O)N[C@H](CCSC)C(N)=O [Peptide V3, Oct-KFKW-Nle-Ym-NH2] (Octanoyl-KFKW[Nle]Y[dM]-NH2)
8 | 64 nM | 5.1 µg/mL |  | CCCCCCCC(=O)N[C@@H](CCCCN)C(=O)N[C@@H](Cc1c[nH]c2ccccc12)C(=O)N[C@@H](CCCCN)C(=O)N[C@@H](Cc1c[nH]c2ccccc12)C(=O)N[C@@H](CCCC)C(=O)N[C@@H](Cc1ccc(O)cc1)C(=O)N[C@H](CCSC)C(N)=O [Peptide V4, Oct-KWKW-Nle-Ym-NH2] (Octanoyl-KWKW[Nle]Y[dM]-NH2)
9 | 41.5 nM | 2.0 µg/mL | >50 µg/mL | CCCCCCCC(=O)N[C@@H](CCCNC(=N)N)C(=O)N[C@@H](Cc1c[nH]c2ccccc12)C(=O)N[C@@H](CCCNC(=N)N)C(=O)N[C@@H](Cc1c[nH]c2ccccc12)C(=O)N[C@@H](CCCC)C(=O)N[C@@H](Cc1ccc(O)cc1)C(=O)N[C@H](CCSC)C(N)=O [Peptide V5, Oct-RWRW-Nle-Ym-NH2] (Octanoyl-RWRW[Nle]Y[dM]-NH2)
10 | 4.2 nM | >50 µg/mL |  | CCCCCCCC(=O)N[C@@H](CCCCN)C(=O)N[C@@H](Cc1ccccc1)C(=O)N[C@@H](CCCCN)C(=O)N[C@@H](Cc1c[nH]c2ccccc12)C(=O)N[C@@H](CCCNC(=N)N)C(=O)N[C@@H](Cc1ccc(O)cc1)C(=O)N[C@@H](CCSC)C(=O)N[C@H](C(=O)N[C@H](CCSC)C(N)=O)C(C)C [Peptide V6, Oct-KFKWRYMVm-NH2] (Octanoyl-KFKWRYMV[dM]-NH2)
11 | 6.4 nM | 13.0 µg/mL | 24.4 µg/mL | CCCCCCCC(=O)N[C@@H](CCCNC(=N)N)C(=O)N[C@@H](Cc1c[nH]c2ccccc12)C(=O)N[C@@H](CCCNC(=N)N)C(=O)N[C@@H](Cc1c[nH]c2ccccc12)C(=O)N[C@@H](CCCNC(=N)N)C(=O)N[C@@H](Cc1ccc(O)cc1)C(=O)N[C@@H](CCSC)C(=O)N[C@H](C(=O)N[C@H](CCSC)C(N)=O)C(C)C [Peptide V8, Oct-RWRWRYMVm-NH2] (Octanoyl-RWRWRYMV[dM]-NH2)
12 | 4.7 nM | 12.7 µg/mL |  | CCCCCCCC(=O)N[C@@H](CCCNC(=N)N)C(=O)N[C@@H](Cc1c[nH]c2ccccc12)C(=O)N[C@@H](CCCNC(=N)N)C(=O)N[C@@H](Cc1c[nH]c2ccccc12)C(=O)N[C@@H](CCCNC(=N)N)C(=O)N[C@@H](Cc1c[nH]c2ccccc12)C(=O)N[C@@H](CCSC)C(=O)N[C@H](C(=O)N[C@H](CCSC)C(N)=O)C(C)C [Peptide V9, Oct-RWRWRWMVm-NH2] (Octanoyl-RWRWRWMV[dM]-NH2)
13 |  | 2.7 µg/mL | 7.3 µg/mL | CCCCCCCC(=O)N[C@@H](CCCNC(=N)N)C(=O)N[C@@H](Cc1c[nH]c2ccccc12)C(=O)N[C@@H](CCCNC(=N)N)C(=O)N[C@@H](Cc1c[nH]c2ccccc12)C(=O)N[C@@H](Cc1ccc2ccccc2c1)C(=O)N[C@@H](Cc1c[nH]c2ccccc12)C(N)=O [Peptide V16, Oct-RWRWZW-NH2] (Octanoyl-RWRW[2Nal]W-NH2)
14 | 62.8 nM | 2.3 µg/mL | 16.2 µg/mL | CCCCCCCC(=O)N[C@@H](CCCNC(=N)N)C(=O)N[C@@H](Cc1c[nH]c2ccccc12)C(=O)N[C@@H](CCCNC(=N)N)C(=O)N[C@@H](Cc1c[nH]c2ccccc12)C(=O)N[C@@H](Cc1ccc2ccccc2c1)C(=O)N[C@@H](Cc1c[nH]c2ccccc12)C(=O)N[C@H](CCSC)C(N)=O [Peptide V18, Oct-RWRWZWm-NH2] (Octanoyl-RWRW[2Nal]W[dM]-NH2)

— patent US11382946B2, “Multi-functional peptides and use thereof” (NOVACELL TECHNOLOGY INC., priority 2019, dated 2022)
